This assay has as its target T1, NK1-receptor (substance P-receptor) (Homo sapiens, UniProt P25103).
T1 construct: expressed in transfected cells; host or cells: IM-9 human lymphoblastoma cells
Kind of assay: NK1-receptor affinity: displacement of 125I-labelled substance P on human lymphoblastoma cells (IM-9) with cloned NK1-receptors. Type of assay: binding. How it is done:
The receptor affinity for the NK1 -receptor (substance P-receptor) was determined on human lymphoblastoma cells (IM-9) with cloned NK1 -receptors, by measuring the displacement of ^125 I-labelled substance p.
Background: Loss of bound radioactivity is the signal in a displacement assay; it reports binding, not function.

Each structure is given as a SMILES string.

The values that follow come from patent US5712397A, “Amino acid derivatives, processes for preparing them and pharmaceutical compositions containing these compounds” (Boehringer Ingelheim GmbH, priority 1994, dated 1998).

T1 sequence (P25103 whole entry): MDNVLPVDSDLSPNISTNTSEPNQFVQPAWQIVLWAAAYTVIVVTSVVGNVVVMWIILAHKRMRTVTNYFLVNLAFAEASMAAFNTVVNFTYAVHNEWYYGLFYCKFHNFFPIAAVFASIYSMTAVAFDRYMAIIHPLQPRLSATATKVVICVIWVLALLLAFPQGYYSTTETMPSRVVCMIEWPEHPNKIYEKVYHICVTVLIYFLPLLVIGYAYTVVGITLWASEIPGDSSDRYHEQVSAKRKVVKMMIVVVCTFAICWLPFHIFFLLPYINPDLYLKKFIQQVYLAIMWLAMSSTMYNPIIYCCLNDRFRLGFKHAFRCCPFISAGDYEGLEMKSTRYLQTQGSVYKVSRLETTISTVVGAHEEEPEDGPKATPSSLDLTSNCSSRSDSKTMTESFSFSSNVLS

A word on the IC50: it is the point on the concentration scale where inhibition reaches its midpoint. Compound `COc1cc2c(cc1OC)N(Cc1ccccc1Cl)C(=O)C(NC(=O)[C@@H]1C[C@@H](O)CN1C(=O)c1cn(C)c3ccccc13)C2` (single isomer, unassigned) [Example 1] came in with a concentration for half-maximal inhibition (IC50) of 0.4 nM. For `CCc1ccccc1CN1C(=O)C(NC(=O)[C@@H]2C[C@@H](O)CN2C(=O)c2cn(C)c3ccccc23)Cc2cc(OC)c(OC)cc21` (single isomer, unassigned) [Example 6] the value was 0.75 nM.
